Source: patent publication US11166965B2, “Compositions for use in stimulating bone growth” (Société des Produits Nestlé S.A., priority 2013, dated 2021)

Tested on: primary osteoblasts
Test: Alkaline phosphatase (ALP) activity of osteoblasts
Type: cell-based, Wistar rats
Details: day 15 of treatment; 10^-9 M 1,25(OH)2D3, 1 μM OLP, 1 μM HTy; vs negative control (C-); FIGS. 3 to 6
Experimental: Primary osteoblasts were isolated from the calvaria of newborn Wistar rats by enzymatic digestion as described by Declercq et al. in 2004. During all experiments, cells were maintained in α-minimal essential medium with 10% heat-inactivated fetal bovine serum and 1% penicillin/streptomycin under conditions of 5% CO2 and 37° C. Cells were seeded on Coll-1-coated 96-well plates at a density of 3500 cells/well or in 24-well plates at a density of 3×10^4 cells/well and cultured for 2 days in o-MEM to reach confluence. Cells were then exposed to different conditions: minimal medium (C−), minimal medium containing 50 μg/ml ascorbic acid, 5 mM ß-glycerophosphate (C+; optimized medium), and minimal medium supplemented with 1 μM Oleuropein ([…]) or/and 10^−9 M 1,25 dihydroxyvitamin D3 (1,25(OH)2D3). OLP and HTy were dissolved in dimethylsulfoxide (DMSO) and 1,25(OH)2D3 was dissolved in ethanol. The final concentrations of DMSO and ethanol in the medium were 0.1% each. The medium was changed every 2 days.
Enzymatic activity of Alkaline Phosphatase (ALP) was measured kinetically on Treatment Days 0, 5, 9, 12 and 15. Osteoblasts were rinsed twice with PBS before being frozen on dry ice. […] Absorbance was measured at 405 nm and 30° C., and every 2 min 30 s for 30 min using a VarioSklan Flash microplate reader. ALP activity was expressed as micromoles of p-NPP per hour per milligram of protein. […]

Q: With `C=C1/C(=C\C=C2/CCC[C@]3(C)[C@@H]([C@H](C)CCCC(C)(C)O)CC[C@@H]23)C[C@@H](O)C[C@@H]1O` [Vitamin D3, 1,25 dihydroxyvitamin D3] as the molecule, how does the “AP (ALP) activity / osteoblast activity” value read?
A: The value was “small but statistically significant increase”.
